Measured values: patent EP1351977B1, “ANTIMICROBIAL PSEUDOPEPTIDES” (INSTITUT NATIONAL DE LA RECHERCHE AGRONOMIQUE (INRA), priority 2001, dated 2004)
Like-named read-outs stand apart in the source and are kept apart here. Ends that are not written are not given here.

Key:
Format in all cases: cell-based
[1] = test system: Staphylococcus epidermidis; test: Bacterial growth inhibition test in Petri dish (solid medium), MIC; conditions: MIC extrapolated from inhibition diameter vs log10 concentration
Pseudomonas fluorescens = test: as above; conditions: MIC extrapolated from inhibition diameter vs log10 concentration
[2] = test system: Stenotrophomonas maltophilia; test: Bacterial growth inhibition test in microplates (liquid medium), MIC, nosocomial bacteria; conditions: microplate test, TSB, 24h; nosocomial strain
Procedure: (§1) Deux tests ont été utilisés pour mesurer l'activité antibactérienne des pseudopeptides, un test d'inhibition de la croissance bactérienne en microplaques (de 96 puits) en milieu liquide et un test d'inhibition de la croissance bactérienne en boîte de Pétri en milieu solide. • * Test en microplaques: La culture bactérienne à tester est prélevée en phase exponentielle, puis diluée au 1/500^ème dans du milieu liquide TSB frais. Chaque puits de la microplaque est rempli avec 100 µl de suspension bactérienne diluée. Dans le premier puits, 100 µl de l'échantillon de pseudopeptide à tester est ajouté à la suspension bactérienne, puis l'échantillon est dilué de 2 en 2 en transférant d'un puits à l'autre 100 µl de suspension. La lecture de la microplaque se fait en mesurant la densité optique à […] (DO600nm) après 24h d'incubation à 28°C ou 37°C selon les bactéries cibles. Connaissant la concentration en pseudopeptide de l'échantillon de départ, ce test permet de déterminer la valeur de la CMI (Concentration Minimale d'Inhibition de la croissance bactérienne). Dans ce test, la CMI correspond à la concentration de l'échantillon pour lequel la DO600nm est inférieure à celle du témoin de culture. • * Test en boîte de Pétri: La culture bactérienne à tester est prélevée en phase exponentielle, puis incorporée à 10 ml d'une gélose dite "sous-couche" (Agarose 1% poids/vol; NaCl 100 mM; Trypcase 0.03 % poids/vol; Tampon phosphate 10 mM pH7.4) à raison de 2.10^5 bactéries/ml. Le mélange est coulé dans une boîte de Pétri ordinaire. 9 puits d'environ 10 µl de volume sont formés dans la "sous-couche" à l'aide d'un embout de pipette stérile de 10 ml. Ces puits sont remplis avec une série de dilutions des pseudopeptides à tester (concentration initiale 500 µg/ml, et dilution de deux en deux jusqu'à 1,95 µg/ml). Après diffusion à température ambiante pendant 2h, une gélose dite "sur-couche" (Agarose 1% wt/vol; Trypcase 6 % wt/vol; Tampon phosphate 10 mM pH7.4) est ajoutée sur la sous-couche à raison de 5 à 10 ml. Après solidification, l'ensemble est mis à incuber pendant une nuit. Le diamètre d'inhibition de la culture bactérienne autour de chaque puits est mesuré en mm; il existe une relation linéaire entre le diamètre d'inhibition et le log10 de la concentration en pseudopeptide qui permet de déterminer par extrapolation la valeur de la CMI.
(§2) Une seconde série de résultats a été obtenue en utilisant le test en microplaques vis-à-vis de bactéries nosocomiales issues de la collection du laboratoire de Bactériologie Médicale du Centre Hospitalier Universitaire de Nîmes (France). Dans cette série, seul le pseudopeptide contenu dans la fraction 8 a été testé (Tableau 5).

Staphylococcus aureus [3] = test: as above; conditions: microplate test, TSB, 24h; nosocomial strain
Procedure: as §1, §2

Pseudomonas aeruginosa = test: as above; conditions: microplate test, TSB, 24h; nosocomial strain
Procedure: as §1, §2

Enterococcus sp. = test: as above; conditions: microplate test, TSB, 24h; nosocomial strain
Procedure: as §1, §2

Enterobacter aerogenes = test: as above; conditions: microplate test, TSB, 24h; nosocomial strain
Procedure: as §1, §2

Bacillus megaterium = test: Bacterial growth inhibition test in Petri dish (solid medium), MIC; conditions: MIC extrapolated from inhibition diameter vs log10 concentration
Alternaria brassicae = test: Antifungal growth inhibition test in liquid medium
[4] = test system: Proteus vulgaris CIP58.60; test: Bacterial growth inhibition test in Petri dish (solid medium), MIC; conditions: MIC extrapolated from inhibition diameter vs log10 concentration
Serratia entomophila = test: as above; conditions: MIC extrapolated from inhibition diameter vs log10 concentration
Cladosporium myc = test: Antifungal growth inhibition test in liquid medium
Staphylococcus aureus [5] = test: Bacterial growth inhibition test in Petri dish (solid medium), MIC; conditions: MIC extrapolated from inhibition diameter vs log10 concentration
bactériophage lambda = test: Antiviral test, lysis plaque method in Top-Agar on E. coli SURE
Procedure: L'activité antivirale des pseudopeptides selon l'invention a été démontrée vis-à-vis du bactériophage lambda. Le bactériophage λ-ZAP est naturellement lytique sur la souche E. coli SURE (Stratagène). Cette activité lytique est mesurable par la méthode des plages de lyse en gélose Top-Agar. 2 µl d'une suspension de virus à 3,5 .10^5 pfu/ml dans du tampon SM ont été mis en présence de 2 µl du pseudopeptides compris dans le pic 8 à 0,5 mg/ml dans de l'eau pure. Après 15 min d'incubation à 37°C, la suspension est mélangée à 3,5 ml de Top-Agar pré-ensemencée avec E. coli SURE à 2 .10^5 cfu/ml. La concentration de pseudopeptide dans la gélose Top-Agar est inférieure à la CMI vis-à-vis de E. coli SURE. Le mélange est coulé en boîte de Pétri puis mis à incuber à 37°C pendant 12h. Le résultat est donné dans le tableau 6.

Klebsiella pneumoniae = test: Bacterial growth inhibition test in Petri dish (solid medium), MIC; conditions: MIC extrapolated from inhibition diameter vs log10 concentration
Botrytis cinerea sp = test: Antifungal growth inhibition test in liquid medium
Cladosporium sp = test: Antifungal growth inhibition test in liquid medium
[6] = test system: Helminthosporium teres sp; test: Antifungal growth inhibition test in liquid medium
Septoria tritici sp = test: Antifungal growth inhibition test in liquid medium
Streptococcus Gr. D = test: Bacterial growth inhibition test in Petri dish (solid medium), MIC; conditions: MIC extrapolated from inhibition diameter vs log10 concentration
Piricularia oryzae sp = test system: Piricularia oryzae sp
Rhizoctonia solani myc = test: Antifungal growth inhibition test in liquid medium

For “Composé 8: pseudopeptide du pic n° 8 de Xenorhabdus nematophilus F1; Famille 1: Lys Lys Lys Lys Lys Gly; 1066 Da; structure en Figure 2 (KKKKKG; also: pseudopeptide modifications)”, the CMI [1] was 30 µg/mL, the CMI (Pseudomonas fluorescens) was 3 µg/mL and the CMI [2] was 25 µg/mL. The CMI (Staphylococcus aureus [3]) was 25 µg/mL, the CMI (Pseudomonas aeruginosa) was 12,5 µg/ml and the CMI (Enterococcus sp.) was 12,5 µg/ml. The CMI (Enterobacter aerogenes) was 25 µg/mL, the CMI (Bacillus megaterium) was 1,5 µg/ml and the “pourcentage d'inhibition de croissance” value (Alternaria brassicae; 10 ppm) was 82%. The “pourcentage d'inhibition de croissance” value (Alternaria brassicae; 20 ppm) was 82%, the “pourcentage d'inhibition de croissance” value (Alternaria brassicae; 40 ppm) was 83% and the CMI [4] was 100 µg/mL. For the same substance, the CMI (Serratia entomophila) was 30 µg/mL, the “pourcentage d'inhibition de croissance” value (Cladosporium myc; 10 ppm) was 70% and the “pourcentage d'inhibition de croissance” value (Cladosporium myc; 20 ppm) was 92%. For the same substance, the “pourcentage d'inhibition de croissance” value (Cladosporium myc; 40 ppm) was 91%, the CMI (Staphylococcus aureus [5]) was 15 µg/mL and the “inhibition du cycle lytique du bactériophage lambda” value (bactériophage lambda; 250 µg/ml) was over 95%. For the same substance, the “Nbre de pfu/boîte” value (bactériophage lambda; in presence of pseudopeptide, 15 min pre-incubation at 37°C with phage, control without pseudopeptide 700 ±50) was 40 ± 5 pfu/boîte, the CMI (Klebsiella pneumoniae) was 15 µg/mL and the “pourcentage d'inhibition de croissance” value (Botrytis cinerea sp; 10 ppm) was 52%. For the same substance, the “pourcentage d'inhibition de croissance” value (Botrytis cinerea sp; 20 ppm) was 95%, the “pourcentage d'inhibition de croissance” value (Botrytis cinerea sp; 40 ppm) was 94% and the “pourcentage d'inhibition de croissance” value (Cladosporium sp; 10 ppm) was 94%. The “pourcentage d'inhibition de croissance” value (Cladosporium sp; 20 ppm) was 94%, the “pourcentage d'inhibition de croissance” value (Cladosporium sp; 40 ppm) was 94% and the “pourcentage d'inhibition de croissance” value ([6]; 10 ppm) was 76%. The “pourcentage d'inhibition de croissance” value ([6]; 20 ppm) was 94%, the “pourcentage d'inhibition de croissance” value ([6]; 40 ppm) was 92% and the “pourcentage d'inhibition de croissance” value (Septoria tritici sp; 10 ppm) was 87%. The “pourcentage d'inhibition de croissance” value (Septoria tritici sp; 20 ppm) was 88%, the “pourcentage d'inhibition de croissance” value (Septoria tritici sp; 40 ppm) was 86% and the CMI (Streptococcus Gr. D) was 200 µg/mL. The “pourcentage d'inhibition de croissance” value (Piricularia oryzae sp; 10 ppm) was 30%, the “pourcentage d'inhibition de croissance” value (Piricularia oryzae sp; 20 ppm) was 35% and the “pourcentage d'inhibition de croissance” value (Piricularia oryzae sp; 40 ppm) was 45%. For the same substance, the “pourcentage d'inhibition de croissance” value (Rhizoctonia solani myc; 10 ppm) was 56%, the “pourcentage d'inhibition de croissance” value (Rhizoctonia solani myc; 20 ppm) was 91% and the “pourcentage d'inhibition de croissance” value (Rhizoctonia solani myc; 40 ppm) was 93%.
